Results: a melting point compilation (Tetko et al.; mined from patent text by program, amines drawn as free bases though some values may be those of a salt)

Row | melting point | SMILES
1 | 42 to 44 °C | CCOC(=O)CC(=O)c1cc(F)c(F)c(OC)c1F
2 | 171 to 173 °C | C=CCn1c(C(F)(F)F)nc2ccc(-n3c(=O)cc(C(F)(F)F)n(C)c3=O)cc21
3 | 130 to 132 °C | COc1ccc(C(C)=C2SCCCS2)cc1C(=O)O
4 | 185 °C | CNc1ccc2cnc(S(C)=O)nc2n1 (configuration not stated)
5 | 284 to 286 °C | C=CCNC1=NS(=O)(=O)c2ccc(Cl)cc2N1
6 | > 250 °C | CN1CC(=O)Nc2ccc(Cl)c(F)c2C1=O
7 | 254 to 256 °C | CCn1c(=O)c(-c2ccc3ccccc3c2)cc2cnc(Nc3ccccc3)nc21
8 | 149 to 151 °C | COc1cc(C(=O)N2CCN(C(=O)/C=C/c3cccc(-c4cc(OC)c(OC)c(OC)c4)c3)CC2)cc(OC)c1OC
9 | 56 to 58 °C | COc1ccc(F)c(NCc2ccccc2)c1
10 | 177 to 178 °C | CCOP(=O)(Cc1ccc(NC(=O)CCc2sc(N)nc2-c2ccc(Cl)cc2)cc1)OCC
11 | 166 °C | C/C(=N/O)[C@@H]1C[C@H](C(=O)OC(C)(C)C)N(C(=O)CNC(=O)Nc2cccc(C)c2)[C@@H]1c1ccccc1 (racemic)
12 | 152 to 154 °C | Cn1cc(-c2cccc(C(F)(F)F)c2)c(=O)c(-c2cccc(C(F)(F)F)c2)c1
13 | 228 to 230 °C | Cc1ccc2c(c1)oc1c(C(=O)O)nn(-c3ccc(Cl)cc3Cl)c12
14 | 161 to 163 °C | CC(O)CNc1c(Br)cnc2cc(Cl)ccc12 (configuration not stated)
15 | 92 to 93 °C | ClC1=NN(c2ccccc2)CC1
16 | 99.4 to 99.9 °C | COC(CNC(=O)CN1C(=O)C(C)=C(C)C1=O)OC
17 | 107 to 109 °C | C=C(C)n1c(=O)n(CCN(C)Cc2ccccc2)c2ccccc21
18 | 170 to 172 °C | CN(C)C(=O)n1nc(N)c2ccc(Cl)cc21
19 | 249 °C | CCC(=O)NC1(c2ccccc2Cl)C(=O)N(Cc2ccc(C(=O)NC(C)(C)C)cc2OC)c2ccc(Cl)cc21 (configuration not stated)
20 | > 270 °C | O=C(O)c1cc2nc3n(c2cc1Cl)CCC3
21 | 161 to 164 °C | CC(C)COc1ccc(C=CC(=O)O)cc1
22 | 90 to 91 °C | C=CCN1C(=O)C2CCc3c(OC)c(OC)cc(C)c3C2C1=O (configuration not stated)
23 | 143 °C | C#Cc1cnn2c(C(F)F)cc(-c3ccc(Cl)c(C)c3)nc12
24 | 221 to 223 °C | O=C1c2c(O)cc(O)cc2OC(c2ccc(O)cc2)C1O (configuration not stated)
25 | 41 to 42 °C | O=CCCc1nc(-c2ccc(Cl)cc2)co1
26 | 225 °C | CNC(=S)NCC1=C(n2ccccc2=O)c2cc([N+](=O)[O-])ccc2OC1(C)C
27 | > 300 °C | CCOC(=O)c1sc2[nH]c(=O)c(=O)[nH]c2c1CC

Continued, compound first:

Row | SMILES | melting point
28 | Cc1ccc2c(N)c(C#N)sc2n1 | 241 to 242 °C
29 | O=C(Nc1nc(-c2ccccc2)cs1)Nc1nc(-c2ccccc2)cs1 | 285 to 287 °C
30 | CC(C)(C)C(=O)O[C@H]1[C@H](N2CCCC2)c2cc(C#N)ccc2OC1(C)C (relative stereo) | 109 to 110 °C
31 | CCOC(=O)C(Cc1c([N+](=O)[O-])ccc(C)c1C)(NC(C)=O)C(=O)OCC | 112 to 113 °C
32 | CCCCC[C@@H](CNC(=O)Nc1c(OCC)ncnc1N(C)C)c1cccc2c1OCO2 | 62 to 64 °C
33 | Cc1cccc(NC(=O)NC2CC(c3ccccc3F)c3ccccc3N(CC(=O)NC(C)(C)C)C2=O)c1 (configuration not stated) | 285 to 300 °C
34 | CCC(C)Nc1c([N+](=O)[O-])cc(C)c(C)c1[N+](=O)[O-] (configuration not stated) | 37 to 38.5 °C
35 | CCC(C)(C)C1=C(OC(C)=O)C(=O)c2ccccc2C1=O | 53 °C
36 | Cc1ccc(-c2[nH]c(-c3ccccc3)nc2C(=O)Nc2nc3ccccc3s2)cc1 | 269 to 270 °C
37 | CC#COc1ccc2c(=O)cc(-c3ccccc3)oc2c1 | 199 to 200 °C
38 | C=Cc1cc2c(cc1Cl)C=C(C(=O)O)C(C(F)(F)F)O2 (configuration not stated) | > 200 °C
39 | CNC(=O)N(C)C(=O)Nc1nc(C(Cl)(Cl)Cl)ns1 | 94 °C
40 | CC(=O)Oc1ccc(-c2cnc(NS(=O)(=O)Cc3ccccc3)c(Cc3ccccc3)n2)cc1 | 240 to 241 °C
41 | Fc1ccc(C(=C2SCCCS2)c2ccc(F)cc2)cc1 | 169 to 171 °C
42 | CC(C)N1CC2(COc3ccc(N(C)C)cc3OC2)OC1=O (configuration not stated) | 135 to 138 °C
43 | C[C@H](c1ccccc1)N(CC(=O)OC(C)(C)C)S(=O)(=O)c1ccc2c(Cl)cnc(NC(=N)N)c2c1 | 106 to 111 °C
44 | CCCCCc1cc(O)c2c(c1)OC(C)(C)CC2C1=CCN(Cc2ccc3ccccc3c2)CC1 (configuration not stated) | 49 to 51.5 °C
45 | Cc1nc2cccc3n(CCCCCCNS(=O)(=O)CC(F)(F)F)c(=O)c1n23 | 141 to 143 °C
46 | COc1cc(C(=O)N2CCN(c3ccc(N)cc3)CC2)cc(OC)c1O | 182 to 183 °C
47 | Cc1nnc2n1-c1sc(C(C)OC(=O)C(C)(C)C)cc1C(c1ccccc1Cl)=NC2 (configuration not stated) | 148 to 151 °C
48 | NCCn1cnc2c(N)nc3ccccc3c21 | 265 °C
49 | CCOCc1nc2c(N)nc(C)c(C)c2n1N(C)C | 170 to 171 °C
50 | O=C(O)c1cn(C2CC2)c2c(F)c(N3CCC(=NO)C3)c(F)c(F)c2c1=O | 300 °C

Row | SMILES | melting point
51 | O=C(Cl)CN1C(=O)c2ccc([N+](=O)[O-])cc2C1=O | 129 to 130 °C
52 | CS(=O)(=O)c1cccc(NC(=O)c2cnn3c(C(F)F)cc(-c4ccc(Cl)c(Cl)c4)nc23)c1 | 262 °C
53 | CCSc1nc(NCc2ccccc2)c2ncn(C3OC(CO)C(O)C3O)c2n1 (configuration not stated) | 172 to 174 °C
54 | c1ccc(-c2ncc(-c3n[nH]c(-c4cccnc4)n3)cn2)cc1 | 322 to 333 °C
55 | O=C1CCCCN1CCc1c[nH]c2ccc(Cl)cc12 | 155 °C
56 | CC(=O)CC(=O)Nc1nc(C)c(C)s1 | 191 to 193 °C
57 | Cc1ccc(Cn2cc(CC(=O)O)c3cc(-c4ccc(OC(F)(F)F)cc4)ccc32)cc1 | 62 to 63 °C
58 | Cc1cccc(-c2ccccc2NC(=N)N2CCCCC2)c1 | 131 °C
59 | O=P(O)(O)Cc1ccccc1-c1ccccc1 | 168 to 169 °C
60 | CCc1c(C(=O)O)nn(-c2ccc(Cl)cc2Cl)c1-c1ccc(Cl)s1 | 207 to 208 °C
61 | CC(C)n1c(C=CC=O)c(-c2ccc(F)cc2)c(-c2ccc(F)cc2)c1C=CC=O | 207 °C
62 | Cc1cnc(CCc2ccccc2)n2c1c(CCCl)c1ccccc12 | 144 to 145 °C
63 | CC(C)(C)c1cc(NC(=O)NNC(=O)c2ccc(N)cc2)cc(C(C)(C)C)c1O | 245 to 246 °C
64 | CC(=O)NC(C)C(C)n1ncn(-c2ccc(N3CCN(c4ccc(O)cc4)CC3)cc2)c1=O (configuration not stated) | 264 °C
65 | CCOC(=O)c1ccc(OCCC2CCc3c(c(OC)c(OC)c(OC)c3OC)CC2)cc1 | 129 to 131 °C
66 | O=C(N=c1sc2cc(C(F)(F)F)ccc2n1CCO)C(F)(F)F | 198 °C
67 | O=C1COC2(CCN(CCc3c[nH]c4ccccc34)CC2)CN1 | 48 to 50 °C
68 | CN1C(=O)C(C)(Cc2ccccc2)N(C)C(=O)C1C1NC(=O)c2cccc(F)c21 (configuration not stated) | 183 to 185 °C
69 | N#CCOC(=O)CCCCc1c[nH]c2ccccc12 | 76 °C
70 | CC1(C)OCC(C(O)CN)O1 (configuration not stated) | 94 to 96 °C
71 | O=C(Nc1ccc(Cl)cc1[N+](=O)[O-])NC1CCCCC1 | 115 to 116 °C
72 | CC(=O)Nc1c(N(C)C)cnn(-c2ccccc2)c1=O | 186 to 187 °C
